Assay results from ChEMBL document CHEMBL3611969, “The effect of complexation of 3-formylrifamycin SV macrocyclic ether derivatives with metal cations and small nitrogen-containing organic molecules on antibacterial activity against S. aureus and S. epidermidis” (Bioorg Med Chem Lett, 2015).
Values after ≈ are worked out from the molar mass of the structure shown.

Experiments:
[1] = test system: Staphylococcus epidermidis; assay: Antibacterial activity against Staphylococcus epidermidis ATCC 49134 after 18 hrs by serial microdilution method; format: functional; conditions: ATCC 49134, 18 h
[2] = test system: Staphylococcus epidermidis; assay: Antibacterial activity against Staphylococcus epidermidis ATCC 12228 after 18 hrs by serial microdilution method; format: functional; conditions: ATCC 12228, 18 h
[3] = test system: Staphylococcus aureus; assay: Antibacterial activity against Staphylococcus aureus ATCC 4163 after 18 hrs by serial microdilution method; format: functional; conditions: ATCC 4163, 18 h
[4] = test system: Staphylococcus aureus; assay: Antibacterial activity against Staphylococcus aureus ATCC 6538 after 18 hrs by serial microdilution method; format: functional; conditions: ATCC 6538, 18 h
[5] = test system: Staphylococcus aureus; assay: Antibacterial activity against Staphylococcus aureus ATCC 25923 after 18 hrs by serial microdilution method; format: functional; conditions: ATCC 25923, 18 h
[6] = Octanol-water partition coefficient, log P of the compound by UV-vis method; format: physicochemical
[7] = Solubility of the compound in water at pH 7; format: physicochemical
[8] = test system: Staphylococcus epidermidis; assay: Antibacterial activity against Staphylococcus epidermidis ATCC 12228 after 18 hrs by serial microdilution method in presence of Li+; format: functional; conditions: ATCC 12228, 18 h
[9] = test system: Staphylococcus epidermidis; assay: Antibacterial activity against Staphylococcus epidermidis ATCC 12228 after 18 hrs by serial microdilution method in presence of Na+; format: functional; conditions: ATCC 12228, 18 h
[10] = test system: Staphylococcus epidermidis; assay: Antibacterial activity against Staphylococcus epidermidis ATCC 49134 after 18 hrs by serial microdilution method in presence of Na+; format: functional; conditions: ATCC 49134, 18 h
[11] = test system: Staphylococcus aureus; assay: Antibacterial activity against Staphylococcus aureus ATCC 6538 after 18 hrs by serial microdilution method in presence of Li+; format: functional; conditions: ATCC 6538, 18 h
[12] = test system: Staphylococcus aureus; assay: Antibacterial activity against Staphylococcus aureus ATCC 4163 after 18 hrs by serial microdilution method in presence of Li+; format: functional; conditions: ATCC 4163, 18 h
[13] = test system: Staphylococcus aureus; assay: Antibacterial activity against Staphylococcus aureus ATCC 6538 after 18 hrs by serial microdilution method in presence of Na+; format: functional; conditions: ATCC 6538, 18 h
[14] = test system: Staphylococcus aureus; assay: Antibacterial activity against Staphylococcus aureus ATCC 25923 after 18 hrs by serial microdilution method in presence of Li+; format: functional; conditions: ATCC 25923, 18 h
[15] = test system: Staphylococcus epidermidis; assay: Antibacterial activity against Staphylococcus epidermidis ATCC 49134 after 18 hrs by serial microdilution method in presence of Li+; format: functional; conditions: ATCC 49134, 18 h
[16] = test system: Staphylococcus aureus; assay: Antibacterial activity against Staphylococcus aureus ATCC 25923 after 18 hrs by serial microdilution method in presence of Na+; format: functional; conditions: ATCC 25923, 18 h
[17] = test system: Staphylococcus aureus; assay: Antibacterial activity against Staphylococcus aureus ATCC 4163 after 18 hrs by serial microdilution method in presence of Na+; format: functional; conditions: ATCC 4163, 18 h

MIC [1] [mg/L]	MIC [2] [mg/L]	MIC [3] [mg/L]	MIC [4] [mg/L]	MIC [5] [mg/L]	logP [6]	solubility [7] [mg/mL]	MIC [8] [mg/L]	MIC [9] [mg/L]	MIC [10] [mg/L]	MIC [11] [mg/L]	MIC [12] [mg/L]	MIC [13] [mg/L]	MIC [14] [mg/L]	MIC [15] [mg/L]	MIC [16] [mg/L]	MIC [17] [mg/L]	SMILES
> 4	> 4	4 (≈ 4.31 µM)	4 (≈ 4.31 µM)	> 4	-0.92	1.6 (≈ 1720 µM)											CO[C@H]1/C=C/O[C@@]2(C)Oc3c(C)c(O)c4c(O)c(c(CN5CCOCCOCCOCCOCC5)c(O)c4c3C2=O)NC(=O)/C(C)=C\C=C\[C@H](C)[C@H](O)[C@@H](C)[C@@H](O)[C@@H](C)[C@H](OC(C)=O)[C@@H]1C
2 (≈ 2.09 µM)	2 (≈ 2.09 µM)	4 (≈ 4.17 µM)	2 (≈ 2.09 µM)	> 4	1.18	0.12 (≈ 125 µM)	2	4	4	> 4	4	2	> 4	2	> 4	> 4	CO[C@H]1/C=C/O[C@@]2(C)Oc3c(C)c(O)c4c(O)c(c(CNCC5COCCOCCOCCOCCO5)c(O)c4c3C2=O)NC(=O)/C(C)=C\C=C\[C@H](C)[C@H](O)[C@@H](C)[C@@H](O)[C@@H](C)[C@H](OC(C)=O)[C@@H]1C (stereo partly specified)
0.125 (≈ 0.172 µM)	0.125 (≈ 0.172 µM)	0.5 (≈ 0.689 µM)	0.5 (≈ 0.689 µM)	0.5 (≈ 0.689 µM)													CO[C@H]1/C=C/O[C@@]2(C)Oc3c(C)c(O)c4c(O)c(c(C=O)c(O)c4c3C2=O)NC(=O)/C(C)=C\C=C\[C@H](C)[C@H](O)[C@@H](C)[C@@H](O)[C@@H](C)[C@H](OC(C)=O)[C@@H]1C
2 (≈ 2.06 µM)	2 (≈ 2.06 µM)	4 (≈ 4.11 µM)	4 (≈ 4.11 µM)	> 4	-0.54	1.2 (≈ 1230 µM)											CO[C@H]1/C=C/O[C@@]2(C)Oc3c(C)c(O)c4c(O)c(c(CN5CCOCCOCCOCCOCCOCC5)c(O)c4c3C2=O)NC(=O)/C(C)=C\C=C\[C@H](C)[C@H](O)[C@@H](C)[C@@H](O)[C@@H](C)[C@H](OC(C)=O)[C@@H]1C

More lines, now with the values behind:

SMILES	MIC [1] [mg/L]	MIC [2] [mg/L]	MIC [3] [mg/L]	MIC [4] [mg/L]	MIC [5] [mg/L]	logP [6]	solubility [7] [mg/mL]	MIC [8] [mg/L]	MIC [9] [mg/L]	MIC [10] [mg/L]	MIC [11] [mg/L]	MIC [12] [mg/L]	MIC [13] [mg/L]	MIC [14] [mg/L]	MIC [15] [mg/L]	MIC [16] [mg/L]	MIC [17] [mg/L]
CO[C@H]1/C=C/O[C@@]2(C)Oc3c(C)c(O)c4c(O)c(c(/C=N/N5CCN(C)CC5)c(O)c4c3C2=O)NC(=O)/C(C)=C\C=C\[C@H](C)[C@H](O)[C@@H](C)[C@@H](O)[C@@H](C)[C@H](OC(C)=O)[C@@H]1C [RIFAMPIN]	0.008 (≈ 0.00972 µM)	0.008 (≈ 0.00972 µM)	0.016 (≈ 0.0194 µM)	0.016 (≈ 0.0194 µM)	0.016 (≈ 0.0194 µM)												
[Li+].[O-][Cl+3]([O-])([O-])[O-]	> 4	> 4	> 4	> 4	> 4												
NCCc1c[nH]cn1 [HISTAMINE]	> 4	> 4	> 4	> 4	> 4												
NNC(=O)c1ccncc1 [ISONIAZID]	> 4	> 4	> 4	> 4	> 4												
